# Target: T1, MC4 (Homo sapiens, UniProt P32245)
# T1 construct: purchased Perkin Elmer BioSignal; host or cells: HEK 293
# Assay: GPCR radioligand binding (RLB) assay, melanocortin MC4, [125I]NDP-αMSH
# Details: 1.0 micromolar compound
# How it was run: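 Competition binding against radioligand ([125I]NDP-αMSH for MC4, [125I]SST-14 for SST5) on membranes of HEK 293 cells carrying the human receptor; buffer and incubation time optimized per receptor. Filtration through 0.5% PEI-treated glass fiber, washing, then scintillation counting.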
# T1 sequence (P32245 whole entry): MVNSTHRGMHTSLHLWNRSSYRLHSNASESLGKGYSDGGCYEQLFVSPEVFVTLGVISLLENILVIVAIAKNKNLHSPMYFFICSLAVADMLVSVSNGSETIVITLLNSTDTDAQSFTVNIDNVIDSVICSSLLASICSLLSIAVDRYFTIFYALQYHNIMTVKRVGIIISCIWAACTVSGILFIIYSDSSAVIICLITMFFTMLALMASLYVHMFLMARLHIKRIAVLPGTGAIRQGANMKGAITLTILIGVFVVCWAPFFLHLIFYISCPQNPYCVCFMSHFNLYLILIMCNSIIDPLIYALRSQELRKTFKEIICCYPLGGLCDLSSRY
row,SMILES,MC4 Inhibition at 1.0 Micromolar
1,CC(=O)N[C@H]1C(NC(=O)CCN)O[C@H](CO)[C@@H](O)[C@@H]1OCc1ccccc1 (stereo partly shown) [Compound 498],+ (Indicates inhibition greater than . . . 50%)
2,CC(=O)N[C@H]1C(NC(=O)CCN)O[C@H](CO)[C@@H](O)[C@@H]1OCc1ccc(C)cc1 (stereo partly shown) [Compound 499],+ (Indicates inhibition greater than . . . 50%)
3,CC(=O)N[C@H]1C(NC(=O)CCN)O[C@H](CO)[C@@H](O)[C@@H]1OCc1cccc2ccccc12 (stereo partly shown) [Compound 500],+ (Indicates inhibition greater than . . . 50%)
4,CC(=O)N[C@H]1C(NC(=O)CCN)O[C@H](CO)[C@@H](O)[C@@H]1OCc1ccc(-c2ccccc2)cc1 (stereo partly shown) [Compound 501],+ (Indicates inhibition greater than . . . 50%)
5,NCCC(=O)NC1O[C@H](CO)[C@@H](O)[C@H](OCc2ccccc2)[C@H]1NC(=O)c1ccccc1 (stereo partly shown) [Compound 502],+ (Indicates inhibition greater than . . . 50%)
6,NCCC(=O)NC1O[C@H](CO)[C@@H](O)[C@H](OCc2ccc(Cl)cc2)[C@H]1NC(=O)c1ccccc1 (stereo partly shown) [Compound 503],+ (Indicates inhibition greater than . . . 50%)
7,Cc1ccc(CO[C@H]2[C@H](O)[C@@H](CO)OC(NC(=O)CCN)[C@@H]2NC(=O)c2ccccc2)cc1 (stereo partly shown) [Compound 504],+ (Indicates inhibition greater than . . . 50%)
8,NCCC(=O)NC1O[C@H](CO)[C@@H](O)[C@H](OCc2cccc3ccccc23)[C@H]1NC(=O)c1ccccc1 (stereo partly shown) [Compound 505],+ (Indicates inhibition greater than . . . 50%)
9,NCC(=O)NC1O[C@H](CO)[C@@H](O)[C@H](OCc2ccccc2)[C@H]1NC(=O)c1ccccc1 (stereo partly shown) [Compound 506],+ (Indicates inhibition greater than . . . 50%)
10,NCC(=O)NC1O[C@H](CO)[C@@H](O)[C@H](OCc2ccc(Cl)cc2)[C@H]1NC(=O)c1ccccc1 (stereo partly shown) [Compound 507],+ (Indicates inhibition greater than . . . 50%)

# Same assay, conditions: 4.0 Micromolar; Example Library 13
row,SMILES,MC4 Inhibition at 4.0 Micromolar
1,N=C(N)NCCC(=O)N[C@H]1C(OCc2ccc(-c3ccccc3)cc2)O[C@H](COCc2ccc3ccccc3c2)[C@@H](O)[C@H]1OCc1ccc2ccccc2c1 (stereo partly shown) [Compound 473],+ (Indicates inhibition greater than . . . 50%)
2,N=C(N)NCCC(=O)N[C@H]1C(OCc2ccc(-c3ccccc3)cc2)O[C@H](COCc2ccccc2)[C@@H](O)[C@H]1OCc1ccc2ccccc2c1 (stereo partly shown) [Compound 474],+ (Indicates inhibition greater than . . . 50%)
3,N=C(N)NCCC(=O)N[C@H]1C(OCc2ccc(-c3ccccc3)cc2)O[C@H](COCc2ccc(Cl)cc2)[C@@H](O)[C@H]1OCc1ccc2ccccc2c1 (stereo partly shown) [Compound 475],+ (Indicates inhibition greater than . . . 50%)
4,N=C(N)NCCC(=O)N[C@H]1C(OCc2ccc(-c3ccccc3)cc2)O[C@H](COCc2ccc3ccccc3c2)[C@@H](O)[C@H]1OCc1ccc(-c2ccccc2)cc1 (stereo partly shown) [Compound 476],+ (Indicates inhibition greater than . . . 50%)
5,N=C(N)NCCC(=O)N[C@H]1C(OCc2ccc(-c3ccccc3)cc2)O[C@H](COCc2ccccc2)[C@@H](O)[C@H]1OCc1ccc(-c2ccccc2)cc1 (stereo partly shown) [Compound 477],+ (Indicates inhibition greater than . . . 50%)
6,N=C(N)NCCC(=O)N[C@H]1C(OCc2ccc(-c3ccccc3)cc2)O[C@H](COCc2ccc(Cl)cc2)[C@@H](O)[C@H]1OCc1ccc(-c2ccccc2)cc1 (stereo partly shown) [Compound 478],+ (Indicates inhibition greater than . . . 50%)
7,N=C(N)NCC(=O)N[C@H]1C(OCc2ccc(Cl)cc2)O[C@H](COCc2ccc3ccccc3c2)[C@@H](O)[C@H]1OCc1ccc(Cl)cc1 (stereo partly shown) [Compound 479],+ (Indicates inhibition greater than . . . 50%)
8,N=C(N)NCC(=O)N[C@H]1C(OCc2ccc(Cl)cc2)O[C@H](COCc2ccccc2)[C@@H](O)[C@H]1OCc1ccc(Cl)cc1 (stereo partly shown) [Compound 480],+ (Indicates inhibition greater than . . . 50%)
9,N=C(N)NCC(=O)NC1C(OCc2ccc(Cl)cc2)OC(COCc2ccc(Cl)cc2)C(O)C1OCc1ccc(Cl)cc1 (stereo not shown) [Compound 481],+ (Indicates inhibition greater than . . . 50%)
10,N=C(N)NCC(=O)NC1C(OCc2ccc(Cl)cc2)OC(COCc2ccc3ccccc3c2)C(O)C1OCc1ccc2ccccc2c1 (stereo not shown) [Compound 482],+ (Indicates inhibition greater than . . . 50%)
11,N=C(N)NCC(=O)NC1C(OCc2ccc(Cl)cc2)OC(COCc2ccccc2)C(O)C1OCc1ccc2ccccc2c1 (stereo not shown) [Compound 483],+ (Indicates inhibition greater than . . . 50%)
12,N=C(N)NCC(=O)NC1C(OCc2ccc(Cl)cc2)OC(COCc2ccc(Cl)cc2)C(O)C1OCc1ccc2ccccc2c1 (stereo not shown) [Compound 484],+ (Indicates inhibition greater than . . . 50%)
13,N=C(N)NCC(=O)NC1C(OCc2ccc(Cl)cc2)OC(COCc2ccc3ccccc3c2)C(O)C1OCc1ccc(-c2ccccc2)cc1 (stereo not shown) [Compound 485],+ (Indicates inhibition greater than . . . 50%)
14,N=C(N)NCC(=O)NC1C(OCc2ccc(Cl)cc2)OC(COCc2ccccc2)C(O)C1OCc1ccc(-c2ccccc2)cc1 (stereo not shown) [Compound 486],+ (Indicates inhibition greater than . . . 50%)
15,N=C(N)NCC(=O)NC1C(OCc2ccc(Cl)cc2)OC(COCc2ccc(Cl)cc2)C(O)C1OCc1ccc(-c2ccccc2)cc1 (stereo not shown) [Compound 487],+ (Indicates inhibition greater than . . . 50%)
16,N=C(N)NCCC(=O)NC1C(OCc2ccc(Cl)cc2)OC(COCc2ccc3ccccc3c2)C(O)C1OCc1ccc(Cl)cc1 (stereo not shown) [Compound 488],+ (Indicates inhibition greater than . . . 50%)
17,N=C(N)NCCC(=O)NC1C(OCc2ccc(Cl)cc2)OC(COCc2ccccc2)C(O)C1OCc1ccc(Cl)cc1 (stereo not shown) [Compound 489],+ (Indicates inhibition greater than . . . 50%)
18,N=C(N)NCCC(=O)NC1C(OCc2ccc(Cl)cc2)OC(COCc2ccc(Cl)cc2)C(O)C1OCc1ccc(Cl)cc1 (stereo not shown) [Compound 490],+ (Indicates inhibition greater than . . . 50%)
19,N=C(N)NCCC(=O)NC1C(OCc2ccc(Cl)cc2)OC(COCc2ccc3ccccc3c2)C(O)C1OCc1ccc2ccccc2c1 (stereo not shown) [Compound 491],+ (Indicates inhibition greater than . . . 50%)
20,N=C(N)NCCC(=O)NC1C(OCc2ccc(Cl)cc2)OC(COCc2ccccc2)C(O)C1OCc1ccc2ccccc2c1 (stereo not shown) [Compound 492],+ (Indicates inhibition greater than . . . 50%)
21,N=C(N)NCCC(=O)NC1C(OCc2ccc(Cl)cc2)OC(COCc2ccc(Cl)cc2)C(O)C1OCc1ccc2ccccc2c1 (stereo not shown) [Compound 493],+ (Indicates inhibition greater than . . . 50%)
22,N=C(N)NCCC(=O)NC1C(OCc2ccc(Cl)cc2)OC(COCc2ccc3ccccc3c2)C(O)C1OCc1ccc(-c2ccccc2)cc1 (stereo not shown) [Compound 494],+ (Indicates inhibition greater than . . . 50%)
23,N=C(N)NCCC(=O)NC1C(OCc2ccc(Cl)cc2)OC(COCc2ccccc2)C(O)C1OCc1ccc(-c2ccccc2)cc1 (stereo not shown) [Compound 495],+ (Indicates inhibition greater than . . . 50%)
24,N=C(N)NCCC(=O)NC1C(OCc2ccc(Cl)cc2)OC(COCc2ccc(Cl)cc2)C(O)C1OCc1ccc(-c2ccccc2)cc1 (stereo not shown) [Compound 496],+ (Indicates inhibition greater than . . . 50%)
25,N=C(N)NCCCC(=O)NC1C(OCc2ccc(-c3ccccc3)cc2)OC(COCc2ccccc2)C(O)C1OCc1ccccc1 (stereo not shown) [Compound 497],+ (Indicates inhibition greater than . . . 50%)

# Target: T2, SST5 (Homo sapiens, UniProt P35346)
# T2 construct: purchased Perkin Elmer BioSignal; host or cells: HEK 293
# Assay: GPCR radioligand binding (RLB) assay, somatostatin SST5, [125I]SST-14
# Details: 10 micromolar compound; recombinant human receptor membranes (HEK 293)
# Method: Recombinant human receptors expressed in HEK 293 cells were used for all experiments. Receptor membrane preparations were purchased from Perkin Elmer BioSignal. The labelled ligand used in somatostatin GPCR RLB assays was [^125I]SST-14 and in melanocortin assays was [^125I]NDP-αMSH. All assays were done in a 96-well plate format using either glass fiber filter mats or filter plates. All reagents purchased were of the highest quality.
# Specific assay buffer, incubation and washing conditions were optimized for each receptor however they all followed the same general format. The procedures for both filter mat and filter plate formats are based on the receptor manufacturers recommendations or those described extensively in the literature. The procedures are briefly outlined below.
# In assays where filter mats are used we incubate receptor membranes, assay buffer and [^125I] labelled ligand in 96 well microplates. Add compounds to incubation mixture and continue incubation for optimized period. Presoak Filter mat GF/B in 0.5% PEI for ˜2 hr at 4° C. On completion of assay mixture incubation add additional 100 μL/well of assay buffer immediately prior to filtration. Filter the assay mixture onto the GF/B filter mat using a cell harvester. Dry the filter mats prior to sealing them into a scintillation counting bag with scintillant. Radioactivity in each well is detected by liquid scintillation counting.
# In assays where filter plates are used Multiscreen glass fiber filter plates (Millipore, Cat No MAFCNOB10) are precoated with 0.5% PEI for ˜2 hr at 4° C. All wells are then washed with 200 µl/well assay buffer and filtered using the Multiscreen Separation System. Subsequently receptor membranes, assay buffer and labelled ligands are added to the wells and equilibrated. Compounds for testing are then added to the mixture and incubation is continued for an optimized time. Plates are then put into the Multiscreen Separation System and the assay mixture is filtered through the plate under vacuum. Each well is then washed several times with assay buffer. Plates are then dried prior to putting sealing tape onto the bottom of the plate. Scintillant is added to each well and radioactivity measured by liquid scintillation counting.
# Raw data was analysed according to standard methods using either GraphPad Prism software or IDDBS ActivityBase software.
# T2 sequence (P35346 whole entry): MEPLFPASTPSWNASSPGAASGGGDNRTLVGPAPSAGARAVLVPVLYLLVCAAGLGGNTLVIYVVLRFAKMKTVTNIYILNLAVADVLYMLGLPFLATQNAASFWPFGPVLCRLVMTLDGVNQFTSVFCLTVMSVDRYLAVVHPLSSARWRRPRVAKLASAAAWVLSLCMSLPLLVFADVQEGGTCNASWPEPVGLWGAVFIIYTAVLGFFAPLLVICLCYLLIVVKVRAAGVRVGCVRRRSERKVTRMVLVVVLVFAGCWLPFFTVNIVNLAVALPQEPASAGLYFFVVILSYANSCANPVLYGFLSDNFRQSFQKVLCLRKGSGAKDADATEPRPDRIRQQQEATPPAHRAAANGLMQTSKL
row,SMILES,SST5 inhibition at 10 micromolar
1,COC[C@H]1OC(OCc2ccc(-c3ccccc3)cc2)[C@H](NC(=O)CCNC(=N)N)[C@@H](OCc2ccc3ccccc3c2)[C@@H]1O (stereo partly shown) [Compound 2],+ (Indicates inhibition greater than . . . 50%)
2,COC[C@H]1OC(OCc2ccc(-c3ccccc3)cc2)[C@H](NC(=O)CCCN)[C@@H](OCc2ccccc2)[C@@H]1O (stereo partly shown) [Compound 3],+ (Indicates inhibition greater than . . . 50%)
3,COC[C@H]1OC(OCc2ccc3ccccc3c2)[C@H](NC(=O)CCCN)[C@@H](OCc2ccccc2)[C@@H]1O (stereo partly shown) [Compound 4],+ (Indicates inhibition greater than . . . 50%)
4,COC[C@H]1OC(OCc2ccccc2)[C@H](NC(=O)CCCN)[C@@H](OCc2ccc(-c3ccccc3)cc2)[C@@H]1O (stereo partly shown) [Compound 7],+ (Indicates inhibition greater than . . . 50%)
5,COC[C@H]1OC(OCc2ccccc2)[C@H](NC(=O)CCCNC(=N)N)[C@@H](OCc2ccc(-c3ccccc3)cc2)[C@@H]1O (stereo partly shown) [Compound 8],+ (Indicates inhibition greater than . . . 50%)

# From patent US7994140B2, “Classes of compounds that interact with GPCRs” (Alchemia Limited, priority 2002, dated 2011)
